Converted amounts (≈) assume the structure as drawn.
How the values were obtained:
Toll-like receptor 8 = target: T1, Toll-like receptor 8 (Homo sapiens, UniProt Q9NR97); experiment: Antagonist activity at TLR8 in human PBMC cells […] assessed as reduction in IL-6 level measured after 20 hrs by AlphaLISA assay; format: cell-based
T1 sequence (Q9NR97 whole entry): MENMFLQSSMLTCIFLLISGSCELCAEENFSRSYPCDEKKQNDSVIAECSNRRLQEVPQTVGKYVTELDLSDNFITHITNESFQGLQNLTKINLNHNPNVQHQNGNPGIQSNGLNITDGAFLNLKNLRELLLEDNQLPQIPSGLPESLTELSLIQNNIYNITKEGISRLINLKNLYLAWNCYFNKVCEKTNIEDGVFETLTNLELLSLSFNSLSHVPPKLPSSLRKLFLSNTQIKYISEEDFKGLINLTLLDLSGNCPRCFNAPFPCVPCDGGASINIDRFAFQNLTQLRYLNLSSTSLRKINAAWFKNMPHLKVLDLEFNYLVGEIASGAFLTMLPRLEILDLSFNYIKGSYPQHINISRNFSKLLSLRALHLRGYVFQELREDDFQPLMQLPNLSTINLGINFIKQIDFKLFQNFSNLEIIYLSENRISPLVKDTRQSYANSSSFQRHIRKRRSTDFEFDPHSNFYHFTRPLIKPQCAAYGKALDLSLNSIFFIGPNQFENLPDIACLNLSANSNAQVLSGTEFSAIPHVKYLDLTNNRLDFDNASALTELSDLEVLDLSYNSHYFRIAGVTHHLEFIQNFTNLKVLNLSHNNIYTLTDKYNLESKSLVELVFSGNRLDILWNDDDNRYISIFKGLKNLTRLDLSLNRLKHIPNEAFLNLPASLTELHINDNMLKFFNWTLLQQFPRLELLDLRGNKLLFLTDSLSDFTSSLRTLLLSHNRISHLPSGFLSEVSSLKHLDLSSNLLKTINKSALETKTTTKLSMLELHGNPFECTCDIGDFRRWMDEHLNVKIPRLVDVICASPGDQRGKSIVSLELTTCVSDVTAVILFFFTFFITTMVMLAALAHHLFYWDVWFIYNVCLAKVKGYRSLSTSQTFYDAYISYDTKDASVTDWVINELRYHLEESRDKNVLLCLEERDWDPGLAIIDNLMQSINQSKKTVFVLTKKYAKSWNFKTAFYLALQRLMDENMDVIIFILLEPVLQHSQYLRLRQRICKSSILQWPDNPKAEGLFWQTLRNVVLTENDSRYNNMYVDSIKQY

Toll-like receptor 9 = target: T2, Toll-like receptor 9 (Homo sapiens, UniProt Q9NR96); experiment: Antagonist activity at TLR9 in human PBMC cells assessed as reduction in IFN alpha measured after 20 hrs by AlphaLISA assay; format: cell-based
T2 sequence (Q9NR96 whole entry): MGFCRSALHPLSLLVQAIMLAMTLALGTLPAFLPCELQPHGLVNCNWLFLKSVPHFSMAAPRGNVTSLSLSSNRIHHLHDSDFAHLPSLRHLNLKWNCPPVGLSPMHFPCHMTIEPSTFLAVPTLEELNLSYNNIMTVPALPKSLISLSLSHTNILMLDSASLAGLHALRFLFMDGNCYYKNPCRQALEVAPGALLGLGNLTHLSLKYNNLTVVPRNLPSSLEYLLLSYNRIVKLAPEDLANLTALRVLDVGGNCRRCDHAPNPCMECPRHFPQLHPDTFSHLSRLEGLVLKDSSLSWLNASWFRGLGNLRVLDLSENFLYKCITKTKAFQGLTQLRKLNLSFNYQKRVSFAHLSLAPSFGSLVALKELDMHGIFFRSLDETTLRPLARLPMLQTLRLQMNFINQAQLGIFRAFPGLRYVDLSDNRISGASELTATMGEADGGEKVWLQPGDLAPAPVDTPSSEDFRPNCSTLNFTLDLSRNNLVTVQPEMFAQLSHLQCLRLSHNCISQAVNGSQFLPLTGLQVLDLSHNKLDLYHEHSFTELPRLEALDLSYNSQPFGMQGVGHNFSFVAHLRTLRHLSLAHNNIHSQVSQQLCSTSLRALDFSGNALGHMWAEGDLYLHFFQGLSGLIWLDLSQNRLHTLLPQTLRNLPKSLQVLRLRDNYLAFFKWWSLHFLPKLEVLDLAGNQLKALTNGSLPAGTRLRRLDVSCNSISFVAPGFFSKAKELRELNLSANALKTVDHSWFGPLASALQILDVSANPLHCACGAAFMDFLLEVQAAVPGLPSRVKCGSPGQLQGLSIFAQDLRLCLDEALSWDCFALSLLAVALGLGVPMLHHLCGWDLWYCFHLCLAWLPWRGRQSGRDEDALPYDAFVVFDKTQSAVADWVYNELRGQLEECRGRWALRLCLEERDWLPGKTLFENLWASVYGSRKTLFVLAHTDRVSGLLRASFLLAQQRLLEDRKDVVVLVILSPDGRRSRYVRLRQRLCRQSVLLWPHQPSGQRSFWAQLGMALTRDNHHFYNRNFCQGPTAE

[1] = Permeability of the compound by PAMPA; format: ADME
[2] = Solubility of the compound; format: physicochemical
[3] = target: Voltage-gated inwardly rectifying potassium channel KCNH2 (Homo sapiens, UniProt Q12809); experiment: Displacement of [3H]-dofetilite from human ERG (unknown origin); format: toxicity
Sequence of Voltage-gated inwardly rectifying potassium channel KCNH2 (Q12809 whole entry): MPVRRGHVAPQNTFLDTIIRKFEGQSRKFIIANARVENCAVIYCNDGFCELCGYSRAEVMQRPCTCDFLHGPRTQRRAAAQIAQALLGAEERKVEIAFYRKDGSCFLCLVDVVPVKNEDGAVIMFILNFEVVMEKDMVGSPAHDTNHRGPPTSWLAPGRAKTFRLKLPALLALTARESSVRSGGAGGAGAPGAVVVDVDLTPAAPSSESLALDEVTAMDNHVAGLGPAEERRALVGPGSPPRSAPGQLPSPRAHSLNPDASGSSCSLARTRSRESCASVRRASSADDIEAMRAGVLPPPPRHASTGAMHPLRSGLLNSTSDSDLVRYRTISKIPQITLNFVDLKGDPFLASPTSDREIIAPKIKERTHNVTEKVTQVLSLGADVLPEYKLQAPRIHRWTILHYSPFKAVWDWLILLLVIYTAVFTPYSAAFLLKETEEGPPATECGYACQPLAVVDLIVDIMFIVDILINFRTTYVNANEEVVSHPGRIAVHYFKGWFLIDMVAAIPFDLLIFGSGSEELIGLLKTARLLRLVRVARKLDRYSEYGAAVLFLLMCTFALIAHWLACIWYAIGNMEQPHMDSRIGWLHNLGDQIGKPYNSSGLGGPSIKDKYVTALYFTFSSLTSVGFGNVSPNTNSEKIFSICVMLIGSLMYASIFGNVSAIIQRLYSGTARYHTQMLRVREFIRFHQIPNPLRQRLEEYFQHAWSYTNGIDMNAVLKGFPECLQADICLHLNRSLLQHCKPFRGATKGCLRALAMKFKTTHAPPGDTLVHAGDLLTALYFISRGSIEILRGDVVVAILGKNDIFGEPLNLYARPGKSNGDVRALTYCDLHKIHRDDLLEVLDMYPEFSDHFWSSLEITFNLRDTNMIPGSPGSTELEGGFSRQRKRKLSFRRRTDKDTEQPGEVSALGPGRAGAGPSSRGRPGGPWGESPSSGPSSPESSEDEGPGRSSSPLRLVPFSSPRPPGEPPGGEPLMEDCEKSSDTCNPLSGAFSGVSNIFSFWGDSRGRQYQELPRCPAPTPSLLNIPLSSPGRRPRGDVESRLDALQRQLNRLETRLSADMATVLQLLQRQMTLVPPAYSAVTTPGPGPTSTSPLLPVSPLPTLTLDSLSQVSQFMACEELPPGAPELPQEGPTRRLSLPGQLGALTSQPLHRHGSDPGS

Cytochrome P450 3A4 [4] = target: T3, Cytochrome P450 3A4 (Homo sapiens, UniProt P08684); experiment: Inhibition of CYP3A4 (unknown origin); format: ADME
T3 sequence (P08684 whole entry): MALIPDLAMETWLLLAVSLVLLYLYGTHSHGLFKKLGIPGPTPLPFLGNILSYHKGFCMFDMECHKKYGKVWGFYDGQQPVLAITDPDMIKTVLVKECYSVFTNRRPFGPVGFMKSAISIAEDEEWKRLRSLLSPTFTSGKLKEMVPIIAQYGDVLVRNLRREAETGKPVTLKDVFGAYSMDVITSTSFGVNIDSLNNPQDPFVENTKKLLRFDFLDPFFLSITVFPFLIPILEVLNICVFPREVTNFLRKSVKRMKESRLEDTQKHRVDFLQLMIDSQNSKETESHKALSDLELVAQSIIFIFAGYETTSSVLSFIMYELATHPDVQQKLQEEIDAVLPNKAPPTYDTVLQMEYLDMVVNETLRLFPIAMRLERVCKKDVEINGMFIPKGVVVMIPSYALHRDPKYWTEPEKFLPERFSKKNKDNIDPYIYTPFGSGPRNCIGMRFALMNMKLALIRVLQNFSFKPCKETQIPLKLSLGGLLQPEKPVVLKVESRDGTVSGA

Cytochrome P450 3A4 [5] = target: T3, Cytochrome P450 3A4; experiment: Time dependent inhibition of CYP3A4 (unknown origin) assessed as Kobs; format: ADME
[6] = Metabolic stability in human liver microsomes assessed as intrinsic clearance; format: ADME, Microsome; conditions: read-out: CLH
[7] = Metabolic stability in mouse liver microsomes assessed as intrinsic clearance; format: ADME, Microsome; conditions: read-out: CLH
[8] = Metabolic stability in rat liver microsomes assessed as intrinsic clearance; format: ADME, Microsome; conditions: read-out: CLH
Toll-like receptor 7 = target: T4, Toll-like receptor 7 (Homo sapiens, UniProt Q9NYK1); experiment: Antagonist activity at TLR7 in human PBMC cells assessed as reduction in IFN alpha measured after 20 hrs by AlphaLISA assay; format: cell-based
T4 sequence (Q9NYK1 whole entry): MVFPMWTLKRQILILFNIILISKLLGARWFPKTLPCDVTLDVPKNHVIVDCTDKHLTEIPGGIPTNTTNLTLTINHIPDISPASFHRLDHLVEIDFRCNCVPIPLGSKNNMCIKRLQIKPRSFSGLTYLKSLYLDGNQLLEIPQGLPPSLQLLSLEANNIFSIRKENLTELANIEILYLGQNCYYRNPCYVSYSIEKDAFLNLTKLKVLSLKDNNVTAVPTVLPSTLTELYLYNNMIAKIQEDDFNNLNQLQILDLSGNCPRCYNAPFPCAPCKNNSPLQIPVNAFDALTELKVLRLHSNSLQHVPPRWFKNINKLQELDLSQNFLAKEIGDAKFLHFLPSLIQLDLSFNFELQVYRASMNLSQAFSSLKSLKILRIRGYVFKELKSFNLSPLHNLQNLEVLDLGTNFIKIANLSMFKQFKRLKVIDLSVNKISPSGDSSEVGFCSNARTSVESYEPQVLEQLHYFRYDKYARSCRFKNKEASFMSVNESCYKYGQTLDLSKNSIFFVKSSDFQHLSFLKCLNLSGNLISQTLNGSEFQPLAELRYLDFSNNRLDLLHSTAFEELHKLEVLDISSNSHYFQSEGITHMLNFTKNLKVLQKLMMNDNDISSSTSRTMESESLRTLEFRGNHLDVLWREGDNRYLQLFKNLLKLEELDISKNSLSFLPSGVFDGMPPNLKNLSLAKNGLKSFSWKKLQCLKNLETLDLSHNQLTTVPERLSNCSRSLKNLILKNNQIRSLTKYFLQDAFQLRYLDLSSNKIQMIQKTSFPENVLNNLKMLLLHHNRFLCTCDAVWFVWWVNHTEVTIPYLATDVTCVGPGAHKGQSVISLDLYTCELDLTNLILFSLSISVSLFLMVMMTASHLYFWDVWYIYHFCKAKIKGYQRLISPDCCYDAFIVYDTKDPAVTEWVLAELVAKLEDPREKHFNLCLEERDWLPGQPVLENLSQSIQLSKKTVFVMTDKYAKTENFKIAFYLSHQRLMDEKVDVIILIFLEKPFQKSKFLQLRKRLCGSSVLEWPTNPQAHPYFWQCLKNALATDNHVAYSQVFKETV

[9] = Volume of distribution at steady state in mouse at 1 mg/ml, po or iv; format: ADME, organism-based; conditions: in vivo
[10] = AUC in mouse at 1 mg/ml, iv; format: ADME; design: dose 1 mg/ml, route iv; conditions: in vivo
[11] = MRT in mouse at 1 mg/ml, po or iv; format: ADME, organism-based; conditions: in vivo
[12] = Cmax in mouse at 1 mg/ml, po; format: ADME; design: dose 1 mg/ml, route po; conditions: in vivo
[13] = AUC in mouse at 1 mg/ml, po; format: ADME; design: dose 1 mg/ml, route po; conditions: in vivo
[14] = Oral bioavailability in mouse at 1 mg/ml; format: ADME, organism-based; conditions: in vivo
[15] = Volume of distribution at steady state in rat at 1 mg/ml, po or iv; format: ADME, organism-based; conditions: in vivo
[16] = AUC in rat at 1 mg/ml, iv; format: ADME; design: dose 1 mg/ml, route iv; conditions: in vivo
[17] = MRT in rat at 1 mg/ml, po or iv; format: ADME, organism-based; conditions: in vivo
[18] = Cmax in rat at 1 mg/ml, po; format: ADME; design: dose 1 mg/ml, route po; conditions: in vivo
[19] = AUC in rat at 1 mg/ml, po; format: ADME; design: dose 1 mg/ml, route po; conditions: in vivo
[20] = Oral bioavailability in rat at 1 mg/ml; format: ADME, organism-based; conditions: in vivo

| IC50 (Toll-like receptor 8) | IC50 (Toll-like receptor 9) | log(permeability) [1] | solubility [2] | IC50 (Cytochrome P450 3A4 [4]) | Kobs (Cytochrome P450 3A4 [5]) | microsomal CLint [6] | microsomal CLint [7] | microsomal CLint [8] | IC50 (Toll-like receptor 7) | Structure (SMILES) | IC50 [3] | other results |
| --- | --- | --- | --- | --- | --- | --- | --- | --- | --- | --- | --- | --- |
| 71 nM | 550 nM | -4.2 | > 175 µM | 28000 nM | 0.037 min⁻¹ | 52 µL/min/mg | 77 µL/min/mg | 28 µL/min/mg |  | Cc1cc(N2CCc3c(c(C)nn3CC34CCC(NC5CCC5)(CC3)CC4)C2)c2cnn(C)c2n1 | 25000 nM |  |
| 20 nM | 1500 nM | -3.9 | > 175 µM | > 50000 nM | 0.031 min⁻¹ | 130 µL/min/mg | 440 µL/min/mg | 55 µL/min/mg | 10 nM | Cc1cc(N2CCc3c(c(C)nn3CC34CCC(N5C[C@@H](C)O[C@@H](C)C5)(CC3)CC4)C2)c2cnn(C)c2n1 | > 30000 nM |  |
| 30 nM | 2100 nM | -4.1 | > 175 µM | > 50000 nM | 0.038 min⁻¹ | 130 µL/min/mg | 246 µL/min/mg | 175 µL/min/mg |  | Cc1cc(N2CCc3c(c(C)nn3CC34CCC(N5CCOCC5)(CC3)CC4)C2)c2cnn(C)c2n1 | > 30000 nM |  |
| 330 nM | 440 nM | -5.3 | > 175 µM | > 50000 nM | 0.008 min⁻¹ | < 15 µL/min/mg | 28 µL/min/mg | < 15 µL/min/mg | 7 nM | CNC12CCC(Cn3nc(C)c4c3CCN(c3cc(C)nc5c3cnn5C)C4)(CC1)CC2 | > 30000 nM |  |
| 160 nM | 710 nM | -4.6 | > 175 µM | > 50000 nM | 0.032 min⁻¹ | 34 µL/min/mg | 33 µL/min/mg | 36 µL/min/mg | 9 nM | Cc1cc(N2CCc3c(c(C)nn3CC34CCC(N(C)C)(CC3)CC4)C2)c2cnn(C)c2n1 | > 30000 nM |  |
| 50 nM | 350 nM | -4.8 | > 175 µM |  |  | 27 µL/min/mg | < 15 µL/min/mg | < 15 µL/min/mg | 10 nM | COCCNC12CCC(Cn3nc(C)c4c3CCN(c3cc(C)nc5c3cnn5C)C4)(CC1)CC2 | 22000 nM |  |
| > 10000 nM | > 10000 nM | -4.8 | 120 µM (≈ 59.7 µg/mL) | > 50000 nM | 0.021 min⁻¹ | 107 µL/min/mg |  | 78 µL/min/mg | 8 nM | Cc1cc(N2CCc3c(c(C)nn3CC34CCC(NS(C)(=O)=O)(CC3)CC4)C2)c2cnn(C)c2n1 | > 30000 nM |  |
| 190 nM | 700 nM | -5.3 |  | > 50000 nM | 0.022 min⁻¹ | < 15 µL/min/mg | 42 µL/min/mg | 34 µL/min/mg |  | CN[C@@H](C)C(=O)NC12CCC(Cn3nc(C)c4c3CCN(c3cc(C)nc5c3cnn5C)C4)(CC1)CC2 | > 30000 nM | Vdss [9]: 3.5 L/kg; AUC [10]: 1.79 µM·h; MRT [11]: 1.6 h; Cmax [12]: 237 nM; AUC [13]: 2.34 µM·h; bioavailability [14]: 26%; Vdss [15]: 2 L/kg; AUC [16]: 1.78 µM·h; MRT [17]: 1.6 h; Cmax [18]: 31 nM; AUC [19]: 0.483 µM·h; bioavailability [20]: 9% |
| 180 nM | 970 nM | -4.5 | > 175 µM | 33000 nM | 0.009 min⁻¹ | 57 µL/min/mg | 60 µL/min/mg | 67 µL/min/mg | 30 nM | Cc1cc(N2CCc3c(c(C)nn3CC34CCC(NC5COC5)(CC3)CC4)C2)c2cnn(C)c2n1 | > 30000 nM |  |

Reference: ChEMBL document CHEMBL5360657, “Discovery of the TLR7/8 Antagonist MHV370 for Treatment of Systemic Autoimmune Diseases” (ACS Med Chem Lett, 2023)
